Results: ChEMBL document CHEMBL4342418, “1,2,3-Triazole-containing hybrids as potential anticancer agents: Current developments, action mechanisms and structure-activity relationships” (Eur J Med Chem, 2019)

Experiments:
Assay type in all cases: functional, cell-based
[1] = test system: MCF7; test: cells; conditions: Homo sapiens
Description: Antiproliferative activity against human MCF7 cells by MTT assay

[2] = test system: HL-60; test: Antiproliferative activity against human HL60 cells by MTT assay
[3] = test system: Lu1; test: Antiproliferative activity against human Lu1 cells by MTT assay
[4] = test system: P388; test: Antiproliferative activity against mouse P388 cells by MTT assay
[5] = test system: MDA-MB-231; test: Antiproliferative activity against human MDA-MB-231 cells assessed as reduction in cell viability after 24 hrs by MTT assay; conditions: MDA-MB-231, 24 h
[6] = test system: A-431; test: Antiproliferative activity against human A431 cells assessed as reduction in cell viability after 24 hrs by MTT assay; conditions: A-431, 24 h
[7] = test system: COLO 205; test: Antiproliferative activity against human COLO205 cells assessed as reduction in cell viability after 24 hrs by MTT assay; conditions: COLO 205, 24 h
[8] = test system: K562; test: Antiproliferative activity against human K562 cells assessed as reduction in cell viability after 24 hrs by MTT assay; conditions: K562, 24 h
[9] = test system: A549; test: Antiproliferative activity against human A549 cells assessed as reduction in cell viability after 24 hrs by MTT assay; conditions: A549, 24 h
[10] = test system: PC-3; test: Antiproliferative activity against human PC3 cells assessed as reduction in cell viability after 24 hrs by MTT assay; conditions: PC-3, 24 h
[11] = test system: HeLa; test: Antiproliferative activity against human HeLa cells by MTT assay
[12] = test system: A549; test: cells; conditions: Homo sapiens
Description: Antiproliferative activity against human A549 cells by MTT assay

Structure (SMILES)	IC50 [1]	IC50 [2]	IC50 [3]	IC50 [4]	other results
C[C@H]1[C@@H](OCc2cn(-c3cccc(C(=O)N4CCCCC4)c3)nn2)O[C@@H]2O[C@@]3(C)CC[C@H]4[C@H](C)CC[C@@H]1[C@@]24OO3	2.5 to 176 µM	2.5 to 176 µM	2.5 to 176 µM	2.5 to 176 µM	–
CC1CCCCN1C(=O)c1cccc(-n2cc(CO[C@H]3O[C@@H]4O[C@@]5(C)CC[C@H]6[C@H](C)CC[C@@H]([C@H]3C)[C@@]46OO5)nn2)c1 (stereo partly drawn)	2.5 to 176 µM	2.5 to 176 µM	2.5 to 176 µM	2.5 to 176 µM	–
C[C@H]1[C@@H](OCc2cn(-c3cccc(C(=O)N4CCOCC4)c3)nn2)O[C@@H]2O[C@@]3(C)CC[C@H]4[C@H](C)CC[C@@H]1[C@@]24OO3	2.5 to 176 µM	2.5 to 176 µM	2.5 to 176 µM	2.5 to 176 µM	–
C[C@H]1[C@@H](OCc2cn(-c3cccc(C(=O)N4CCN(c5ccccc5)CC4)c3)nn2)O[C@@H]2O[C@@]3(C)CC[C@H]4[C@H](C)CC[C@@H]1[C@@]24OO3	2.5 to 176 µM	2.5 to 176 µM	2.5 to 176 µM	2.5 to 176 µM	–
CC(=O)c1ccccc1-n1cc(CO[C@H]2O[C@@H]3O[C@@]4(C)CC[C@H]5[C@H](C)CC[C@@H]([C@H]2C)[C@@]35OO4)nn1	–	–	–	–	IC50 [5]: 4.06 to 89.9 µM; IC50 [6]: 4.06 to 89.9 µM; IC50 [7]: 4.06 to 89.9 µM; IC50 [8]: 4.06 to 89.9 µM; IC50 [9]: 4.06 to 89.9 µM; IC50 [10]: 4.06 to 89.9 µM
C[C@H]1[C@@H](OCc2cn(-c3ccc(C#N)cc3)nn2)O[C@@H]2O[C@@]3(C)CC[C@H]4[C@H](C)CC[C@@H]1[C@@]24OO3	–	–	–	–	IC50 [5]: 4.06 to 89.9 µM; IC50 [6]: 4.06 to 89.9 µM; IC50 [7]: 4.06 to 89.9 µM; IC50 [8]: 4.06 to 89.9 µM; IC50 [9]: 4.06 to 89.9 µM; IC50 [10]: 4.06 to 89.9 µM
CC(=O)c1ccc(-n2cc(CO[C@H]3O[C@@H]4O[C@@]5(C)CC[C@H]6[C@H](C)CC[C@@H]([C@H]3C)[C@@]46OO5)nn2)cc1	–	–	–	–	IC50 [5]: 4.06 to 89.9 µM; IC50 [6]: 4.06 to 89.9 µM; IC50 [7]: 4.06 to 89.9 µM; IC50 [8]: 4.06 to 89.9 µM; IC50 [9]: 4.06 to 89.9 µM; IC50 [10]: 4.06 to 89.9 µM
C[C@H]1[C@@H](OCc2cn(-c3ccc([N+](=O)[O-])cc3)nn2)O[C@@H]2O[C@@]3(C)O[C@]24[C@H]1CC[C@@H](C)[C@@H]4C[C@H]3O	–	–	–	–	IC50 [5]: 4.06 to 89.9 µM; IC50 [6]: 4.06 to 89.9 µM; IC50 [7]: 4.06 to 89.9 µM; IC50 [8]: 4.06 to 89.9 µM; IC50 [9]: 4.06 to 89.9 µM; IC50 [10]: 4.06 to 89.9 µM
CC1CCN(C(=O)c2ccc(-n3cc(CO[C@H]4O[C@@H]5O[C@@]6(C)CC[C@H]7[C@H](C)CC[C@@H]([C@H]4C)[C@@]57OO6)nn3)cc2)CC1	2.5 to 4.7 µM	2.5 to 4.7 µM	2.5 to 4.7 µM	2.5 to 4.7 µM	–
CCN(CC)C(=O)c1ccc(-n2cc(CO[C@H]3O[C@@H]4O[C@@]5(C)CC[C@H]6[C@H](C)CC[C@@H]([C@H]3C)[C@@]46OO5)nn2)cc1	2.5 to 176 µM	2.5 to 176 µM	2.5 to 176 µM	2.5 to 176 µM	–
CC1CCN(C(=O)c2cccc(-n3cc(CO[C@H]4O[C@@H]5O[C@@]6(C)CC[C@H]7[C@H](C)CC[C@@H]([C@H]4C)[C@@]57OO6)nn3)c2)CC1	2.5 to 176 µM	2.5 to 176 µM	2.5 to 176 µM	2.5 to 176 µM	–
CCN1CCN(C(=O)c2ccc(-n3cc(CO[C@H]4O[C@@H]5O[C@@]6(C)CC[C@H]7[C@H](C)CC[C@@H]([C@H]4C)[C@@]57OO6)nn3)cc2)CC1	2.5 to 176 µM	2.5 to 176 µM	2.5 to 176 µM	2.5 to 176 µM	–
C[C@H]1[C@@H](OCc2cn(-c3ccc(C(=O)N4CCCC4)cc3)nn2)O[C@@H]2O[C@@]3(C)CC[C@H]4[C@H](C)CC[C@@H]1[C@@]24OO3	2.5 to 176 µM	2.5 to 176 µM	2.5 to 176 µM	2.5 to 176 µM	–
CC(=O)c1cccc(-n2cc(CO[C@H]3O[C@@H]4O[C@@]5(C)CC[C@H]6[C@H](C)CC[C@@H]([C@H]3C)[C@@]46OO5)nn2)c1	–	–	–	–	IC50 [5]: 4.06 to 89.9 µM; IC50 [6]: 4.06 to 89.9 µM; IC50 [7]: 4.06 to 89.9 µM; IC50 [8]: 4.06 to 89.9 µM; IC50 [9]: 4.06 to 89.9 µM; IC50 [10]: 4.06 to 89.9 µM
C[C@H]1[C@@H](OCc2cn(-c3cccc(C(=O)N4CCN(C)CC4)c3)nn2)O[C@@H]2O[C@@]3(C)CC[C@H]4[C@H](C)CC[C@@H]1[C@@]24OO3	2.5 to 176 µM	2.5 to 176 µM	2.5 to 176 µM	2.5 to 176 µM	–
C[C@H]1[C@@H](OCc2cn(-c3ccc(C(=O)N4CCOCC4)cc3)nn2)O[C@@H]2O[C@@]3(C)CC[C@H]4[C@H](C)CC[C@@H]1[C@@]24OO3	2.5 to 176 µM	2.5 to 176 µM	2.5 to 176 µM	2.5 to 176 µM	–
COc1ccc(-n2cc(Cn3c(=O)sc4cc(Br)ccc43)nn2)cc1	17.5 µM	–	–	–	IC50 [11]: 12.2 µM
C[C@H]1[C@@H](OCc2cn(-c3ccc([N+](=O)[O-])cc3)nn2)O[C@@H]2O[C@@]3(C)CC[C@H]4[C@H](C)CC[C@@H]1[C@@]24OO3	–	–	–	–	IC50 [5]: 4.06 to 89.9 µM; IC50 [6]: 4.06 to 89.9 µM; IC50 [7]: 4.06 to 89.9 µM; IC50 [8]: 4.06 to 89.9 µM; IC50 [9]: 4.06 to 89.9 µM; IC50 [10]: 4.06 to 89.9 µM

Structure (SMILES)	IC50 [1]	IC50 [2]	IC50 [3]	IC50 [4]	other results
CCN(CC)C(=O)c1cccc(-n2cc(CO[C@H]3O[C@@H]4O[C@@]5(C)CC[C@H]6[C@H](C)CC[C@@H]([C@H]3C)[C@@]46OO5)nn2)c1	2.5 to 176 µM	2.5 to 176 µM	2.5 to 176 µM	2.5 to 176 µM	–
C[C@@H]1CC[C@H]2C[C@@H](OCc3cn(-c4ccnc5cc(Cl)ccc45)nn3)O[C@@H]3O[C@@]4(C)CC[C@@H]1[C@@]23OO4	5.7 to 19.5 µM	5.7 to 19.5 µM	5.7 to 19.5 µM	5.7 to 19.5 µM	–
COc1ccc(-c2ccc3c(c2)OCC(=O)N3Cc2cn(-c3cc(Cl)cc(Cl)c3)nn2)cc1	21.8 µM	–	–	–	IC50 [11]: 19.5 µM
C[C@H]1[C@@H](OCc2cn(-c3ccc(C(=O)N4CCCCC4)cc3)nn2)O[C@@H]2O[C@@]3(C)CC[C@H]4[C@H](C)CC[C@@H]1[C@@]24OO3	2.5 to 176 µM	2.5 to 176 µM	2.5 to 176 µM	2.5 to 176 µM	–
CCN1CCN(C(=O)c2cccc(-n3cc(CO[C@H]4O[C@@H]5O[C@@]6(C)CC[C@H]7[C@H](C)CC[C@@H]([C@H]4C)[C@@]57OO6)nn3)c2)CC1	2.5 to 176 µM	2.5 to 176 µM	2.5 to 176 µM	2.5 to 176 µM	–
CCC1(CCn2cc(COc3ccc(C)cc3)nn2)OCCc2c1[nH]c1ccccc21 (stereo not drawn)	–	–	–	–	IC50 [12]: 3.65 µM
C[C@H]1[C@@H](OCc2cn(-c3cccc(C(=O)N4CCCC4)c3)nn2)O[C@@H]2O[C@@]3(C)CC[C@H]4[C@H](C)CC[C@@H]1[C@@]24OO3	2.5 to 176 µM	2.5 to 176 µM	2.5 to 176 µM	2.5 to 176 µM	–
C[C@H]1[C@@H](OCc2cn(-c3ccc(O)cc3)nn2)O[C@@H]2O[C@@]3(C)CC[C@H]4[C@H](C)CC[C@@H]1[C@@]24OO3	–	–	–	–	IC50 [5]: 4.06 to 36.6 µM; IC50 [6]: 4.06 to 36.6 µM; IC50 [7]: 4.06 to 36.6 µM; IC50 [8]: 4.06 to 36.6 µM; IC50 [9]: 4.06 to 36.6 µM; IC50 [10]: 4.06 to 36.6 µM
C[C@H]1[C@@H](OCc2cn(-c3ccc(C(=O)N4CCN(c5ccccc5)CC4)cc3)nn2)O[C@@H]2O[C@@]3(C)CC[C@H]4[C@H](C)CC[C@@H]1[C@@]24OO3	2.5 to 176 µM	2.5 to 176 µM	2.5 to 176 µM	2.5 to 176 µM	–
COc1cc(-c2ccccc2Cl)cc(-c2nnn(Cc3ccccc3)c2C)n1	–	–	–	–	IC50 [5]: 42.3 µg/mL; IC50 [9]: 42.6 µg/mL; IC50 [10]: 28.2 µg/mL
CCC1(CCn2cc(COc3ccccc3)nn2)OCCc2c1[nH]c1ccccc21 (stereo not drawn)	–	–	–	–	IC50 [12]: 3.29 µM
CC(=O)c1ccccc1-n1cc(CO[C@H]2O[C@@H]3O[C@@]4(C)O[C@]35[C@@H](CC[C@@H](C)[C@@H]5C[C@H]4O)[C@H]2C)nn1	–	–	–	–	IC50 [5]: 4.06 to 89.9 µM; IC50 [6]: 4.06 to 89.9 µM; IC50 [7]: 4.06 to 89.9 µM; IC50 [8]: 4.06 to 89.9 µM; IC50 [9]: 4.06 to 89.9 µM; IC50 [10]: 4.06 to 89.9 µM
CC1CCCCN1C(=O)c1ccc(-n2cc(CO[C@H]3O[C@@H]4O[C@@]5(C)CC[C@H]6[C@H](C)CC[C@@H]([C@H]3C)[C@@]46OO5)nn2)cc1 (stereo partly drawn)	2.5 to 176 µM	2.5 to 176 µM	2.5 to 176 µM	2.5 to 176 µM	–
COc1ccc(-n2cc(CO[C@H]3O[C@@H]4O[C@@]5(C)CC[C@H]6[C@H](C)CC[C@@H]([C@H]3C)[C@@]46OO5)nn2)cc1	–	–	–	–	IC50 [5]: 4.06 to 89.9 µM; IC50 [6]: 4.06 to 89.9 µM; IC50 [7]: 4.06 to 89.9 µM; IC50 [8]: 4.06 to 89.9 µM; IC50 [9]: 4.06 to 89.9 µM; IC50 [10]: 4.06 to 89.9 µM
CC[C@H]1OC(=O)[C@H](C)[C@@H](O[C@H]2C[C@@](C)(OC)[C@@](C)(CN(C)Cc3ccc(-c4cn(CCCCCCC(=O)NO)nn4)cc3)[C@H](C)O2)[C@H](C)[C@@H](O)[C@](C)(OC)C[C@@H](C)C(=O)[C@H](C)[C@@H](O)[C@]1(C)O	0.69 µM	–	–	–	IC50 [12]: 0.99 µM
C[C@H]1[C@@H](OCc2cn(-c3ccc(C(=O)N4CCN(C)CC4)cc3)nn2)O[C@@H]2O[C@@]3(C)CC[C@H]4[C@H](C)CC[C@@H]1[C@@]24OO3	2.5 to 176 µM	2.5 to 176 µM	2.5 to 176 µM	2.5 to 176 µM	–
CO[C@H]1C[C@@H]2CC[C@@H](C)[C@@](O)(O2)C(=O)C(=O)N2CCCC[C@H]2C(=O)O[C@H]([C@H](C)C[C@@H]2CC[C@@H](O)[C@H](OC)C2)CC(=O)[C@H](C)/C=C(\C)[C@@H](O)[C@@H](OC)C(=O)[C@H](C)C[C@H](C)/C=C/C=C/C=C/1C [SIROLIMUS]	18.7 to 35.1 µM	–	–	–	IC50 [12]: 18.7 to 35.1 µM
